Experimental data: paper PMC6756013, “B591, a novel specific pan-PI3K inhibitor, preferentially targets cancer stem cells” (Oncogene, 2019)

What was measured:
[1] = tested on: RD cells; test: Apoptosis assay (Annexin V-FITC); assay type: cell-based, human; details: 48 h
Procedure: Cells were seeded in six-well plates at a density of 2×10^5 cells per well and kept overnight at 37℃ humidified incubator with 5% CO2. The next day, cells were treated with B591 for 48 h. Cells were then collected and stained using Annexin V-FITC Apoptosis Detection Kit I (BD Pharmingen™, Franklin Lakes, NJ, USA) according to manufacturer’s instruction. In brief, cells were washed with cold PBS twice and with binding buffer once, about 1×10^5 cells were resuspended in 100 μl Annexin-V binding buffer, followed by incubation with FITC conjugated Annexin V and propidium iodide (PI) for 15 min at room temperature in the dark. The apoptosis assay was performed by using BD FACSCalibur flow cytometry.
Supplementary Fig. S8. B591 induces G0/G1 cell cycle arrest and apoptosis in tumor cells. […] The cells were harvested and analyzed for cell cycle profile. […] The cells were harvested and processed for apoptosis assay using the Annexin V-FITC Apoptosis Detection Kit. (D) Quantification of flow cytometry analysis of apoptosis. Results were presented as mean ± SD (n = 3). ^***p <0.001, difference versus DMSO-treated control group.

[2] = tested on: primary tumor cells dissociated from MDA-MB-231 xenografts replanted into NOD/SCID mice; test: Limiting dilution assay of cells from treated MDA-MB-231 xenografts; assay type: in vivo; details: for number of tumor-bearing mice (number of recipient mice): cells from 16 mg/kg group, 3 months later
Procedure: Fig. 5 B591 abolishes tumor growth in vivo by eliminating CSCs. a MDA-MB-231 xenografts were treated with vehicle or B591 for 2 weeks, then the residual tumor tissue was harvested and dissociated into single cells for subsequent CSCs assays according with the flow chart. b–d Tumor weight and mice body weight were measured every 2 days during treatment. In the end of treatment, tumor tissues were collected and weighted (n = 8). e The CSCs markers of tumor cells were analyzed by flow cytometry. Only the live and non-mouse cell population was gated and analyzed. Data from three mice were plotted. f Mammosphere formation assay was carried out with the single cells. The relative mammosphere-formation ability is shown as percentage, and data represent mean ± SD. g The single cells from vehicle and 16 mg/kg of B591 group were replanted into NOD/SCID mice according to the indicating number, and 3 months later, tumors were counted for calculating the tumor-initiating frequency. h The CSCs markers and the downstream substrates of PI3K pathway were analyzed using the lysates from the primary xenografts by western blot analysis. ^**p < 0.01, difference versus vehicle-treated control group TEXT PRINTED IN THE PICTURE: (G) B591: 3(5) (Cell number: 200 000); 2(5) (Cell number: 20 000); 0(5) (Cell number: 2 000); 0(5) (Cell number: 200); TIF: 1/145 000
The primary tumor cells dissociated from xenografts were injected into the mammary fat pad of NOD/SCID mice in limiting dilutions.
In MDA-MB-231 xenografts experiment, 1 × 10^6 cells were incubated into the mammary fat pad of mice orthotopically. When the volume of tumor reached above 50 mm^3, the mice were randomly divided into three groups for introperitoneal (i.p.) injection with vehicle, 4 mg/kg and 16 mg/kg B591. The tumor volume and the body weight of mice were measured during the 2-weeks treatment. In the end of treatment, the mice were killed, and the tumor tissues were dissected and dissociated into single cell suspension with Dispase II (Roche, Basel, Switzerland) according with the manufacture’s protocol. Then these single cells were used for CSCs phenotype assay, ALDH activity assay, mammosphere formation assay and limiting dilution assay in vivo as described above.

How did the Apoptosis induction [1] turn out when Cc1cc2c(cc1C)[n+](Cc1ccccc1Br)cn2Cc1ccc2c(c1)CCO2.[Br-] [B591, 3-(2-bromobenzyl)-1-((2,3-dihydrobenzofuran-5-yl)methyl) -5,6-dimethyl-1H-benzo[d]imidazol-3-ium bromide] was run?
The Apoptosis induction was “significant apoptosis inducing effect”.

What about the “number of tumor-bearing mice (number of recipient mice)” value (“number of tumor-bearing mice” below) ([2]; cell number 2 000) of the same compound?
Its value is 0(5).

What about the “number of tumor-bearing mice” value ([2]; cell number 20 000) of the same compound?
The value was 2(5).

And the “number of tumor-bearing mice” value ([2]; cell number 200 000)?
Its value is 3(5).

And the “number of tumor-bearing mice” value ([2]; cell number 200)?
The value was 0(5).

What about the “Reduction of tumor-initiating frequency versus vehicle” value ([2]; cells from B591-treated tumors) of the same compound?
The value was “sevenfold reduction”.
